According to patent US20170152226A1, “FUNCTIONALISED AND SUBSTITUTED INDOLES AS ANTI-CANCER AGENTS” (Novogen Ltd., priority 2014, published 2017):
Read-outs that look alike come from different tables or passages of the source.

Legend:
Assay type in all cases: cell-based
IL-21 = test: Inhibition of cytokine release from PBMCs (HTRF); conditions: PBMC, human PBMCs, PMA and ionomycin stimulated
Description: (§1) The ability of compounds 3507, 3520, 3534 and 3538 to inhibit the release of cytokines TNF-α, IFN-γ, IL-6, IL-21, IL-17A and IL-23 was evaluated in vitro (Tables 4 and 5). Briefly, human peripheral blood mononuclear cells (PBMCs) were isolated from human peripheral blood by Histopaque density gradient centrifugation. The freshly isolated PBMCs were seeded at 50,000 cells/well in a 96-well half area plate. PBMCs were dosed with the test compounds (at 10 μM, 1 μM and 0.1 μM) and then incubated at 37° C. and 5% CO2 for 2 hours. To stimulate release of the cytokines IFN-γ, IL-21, IL-17A and IL-23, the PBMCs were treated with 50 ng/mL of phorbol 12-myristate 13-acetate (PMA) and 1 μg/mL of ionomycin and to stimulate the release of TNF-α and IL-6, PBMCs were treated with 100 ng/mL of lipopolysaccharide (LPS) from gram-negative bacteria. The PBMCs were then incubated at 37° C. and 5% CO2 for a further 6 hours and the cell supernatant was collected and a Homogenous Time Resolved Fluorescence (HTRF) assay was carried out following the manufacturer's instructions. Cytokine release from the PBMCs was captured using a Perkin Elmer ENVISION 2104 microplate reader set at 615 nm and 665 nm respectively.

TNF-α = test: Inhibition of cytokine release from PBMCs (HTRF); conditions: PBMC, human PBMCs, LPS stimulated
Description: as §1

IL-6 = test: Inhibition of cytokine release from PBMCs (HTRF); conditions: PBMC, human PBMCs, LPS stimulated
Description: as §1

IL-17A = test: Inhibition of cytokine release from PBMCs (HTRF); conditions: PBMC, human PBMCs, PMA and ionomycin stimulated
Description: as §1

IFN-γ = test: Inhibition of cytokine release from PBMCs (HTRF); conditions: PBMC, human PBMCs, PMA and ionomycin stimulated
Description: as §1

IL-23 = test: Inhibition of cytokine release from PBMCs (HTRF); conditions: PBMC, human PBMCs, PMA and ionomycin stimulated
Description: as §1

DU145 = test: Anti-proliferative activity, cell-titre luminescent viability assay; conditions: read-out: IC50 Prostate DU145
Summary of the method: (§2)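 Cells attached for 24 h at 37° C, 5% CO2, then received compound (0.03, 0.3, 3, 30 μM, or 0.1–30 μM in six steps) for 72 h. Viability was read by cell-titre luminescence after 30 min and normalized to untreated or vehicle control. IC50 came from linear regression of semi-log plots, or EC50 from variable-slope sigmoidal nonlinear regression, depending on compound.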

A549 = test: as above; conditions: read-out: IC50 Lung (NSLC) A549
Summary of the method: as §2

CaCo2 = test: as above; conditions: read-out: IC50 Colorectal CaCo2
Summary of the method: as §2

SK-N-SH = test: as above; conditions: read-out: IC50 Neuroblastoma SK-N-SH
Summary of the method: as §2

PC3 = test: as above; conditions: read-out: IC50 Prostate PC3
Summary of the method: as §2

MDA-MB-231 = test: as above; conditions: read-out: IC50 Breast MDA-MB-231
Summary of the method: as §2

SK-Mel-28 = test: as above; conditions: 72 hours, read-out: IC50 Melanoma SK-Mel-28
Summary of the method: as §2

[1] = 72 hours, 0.03, 0.3, 3 and 30 μM, linear regression of semi-log plots
[2] = Homo sapiens, DU-145, 72 h, 0.1, 0.3, 1, 3, 10 and 30 μM, nonlinear regression sigmoidal dose-response (EC50)
[3] = Homo sapiens, A549, 72 h, 0.1, 0.3, 1, 3, 10 and 30 μM, nonlinear regression sigmoidal dose-response (EC50)
[4] = Homo sapiens, Caco-2, 72 h, 0.1, 0.3, 1, 3, 10 and 30 μM, nonlinear regression sigmoidal dose-response (EC50)
[5] = Homo sapiens, SK-N-SH, 72 h, 0.1, 0.3, 1, 3, 10 and 30 μM, nonlinear regression sigmoidal dose-response (EC50)
[6] = Homo sapiens, PC-3, 72 h, 0.1, 0.3, 1, 3, 10 and 30 μM, nonlinear regression sigmoidal dose-response (EC50)
[7] = Homo sapiens, MDA-MB-231, 72 h, 0.1, 0.3, 1, 3, 10 and 30 μM, nonlinear regression sigmoidal dose-response (EC50)
[8] = Homo sapiens, SK-MEL-28, 0.1, 0.3, 1, 3, 10 and 30 μM, nonlinear regression sigmoidal dose-response (EC50)

`COc1ccc(CCN2CCN(C(=O)c3ccc(Cc4ccc5c(c4)c(C)c(C)n5CCCN4CCN(C)CC4)cc3)CC2)cc1` [Compound 3520, (4-((2,3-dimethyl-1-(3-(4-methylpiperazin-1-yl)propyl)-1H-indol-5-yl)methyl)phenyl)(4-(4-methoxyphenethyl)piperazin-1-yl)methanone] gave an inhibition at 0.1 µM (IL-21; 0.1 μM) of -8%, an inhibition at 1 µM (IL-21; 1 μM) of -13% and an inhibition at 10 µM (IL-21; 10 μM) of -12%. For the same compound, the inhibition at 0.1 µM (TNF-α; 0.1 μM) was -8%, the inhibition at 1 µM (TNF-α; 1 μM) was -10% and the inhibition at 10 µM (TNF-α; 10 μM) was -14%. It also gave an inhibition at 0.1 µM (IL-6; 0.1 μM) of -10%, an inhibition at 1 µM (IL-6; 1 μM) of -9% and an inhibition at 10 µM (IL-6; 10 μM) of 3%. For the same compound, the inhibition at 0.1 µM (IL-17A; 0.1 μM) was -11%, the inhibition at 1 µM (IL-17A; 1 μM) was -7% and the inhibition at 10 µM (IL-17A; 10 μM) was 1%. It also gave an inhibition at 0.1 µM (IFN-γ; 0.1 μM) of 1%, an inhibition at 1 µM (IFN-γ; 1 μM) of 0% and an inhibition at 10 µM (IFN-γ; 10 μM) of 4%. It also gave an inhibition at 0.1 µM (IL-23; 0.1 μM) of -8%, an inhibition at 1 µM (IL-23; 1 μM) of -1% and an inhibition at 10 µM (IL-23; 10 μM) of 12%. For the same compound, the IC50 (DU145; Homo sapiens, DU-145, 72 h, 0.03, 0.3, 3 and 30 μM, linear regression of semi-log plots) was 2.7 µM, the IC50 (A549; Homo sapiens, A549, 72 h, 0.03, 0.3, 3 and 30 μM, linear regression of semi-log plots) was 2.4 µM and the IC50 (CaCo2; Homo sapiens, Caco-2, 72 h, 0.03, 0.3, 3 and 30 μM, linear regression of semi-log plots) was 3.5 µM. For the same compound, the IC50 (SK-N-SH; Homo sapiens, SK-N-SH, 72 h, 0.03, 0.3, 3 and 30 μM, linear regression of semi-log plots) was 2.3 µM, the IC50 (PC3; Homo sapiens, PC-3, 72 h, 0.03, 0.3, 3 and 30 μM, linear regression of semi-log plots) was 2.3 µM and the IC50 (MDA-MB-231; Homo sapiens, MDA-MB-231, 72 h, 0.03, 0.3, 3 and 30 μM, linear regression of semi-log plots) was 2.8 µM. The IC50 (SK-Mel-28; Homo sapiens, SK-MEL-28, 0.03, 0.3, 3 and 30 μM, linear regression of semi-log plots) was 2.5 µM.

`COc1ccc(CCN2CCN(C(=O)c3ccc(Nc4ccc5c(c4)c(C)c(C)n5CCCN4CCN(C)CC4)cc3)CC2)cc1` [Compound 3536, (4-((2,3-dimethyl-1-(3-(4-methylpiperazin-1-yl)propyl)-1H-indol-5-yl)amino)phenyl)(4-(4-methoxyphenethyl)piperazin-1-yl)methanone] was tested, and the IC50 (DU145; [1]) was 3.6 µM, the IC50 (A549; [1]) was 3.1 µM and the IC50 (CaCo2; [1]) was 12.9 µM. For the same compound, the IC50 (SK-N-SH; [1]) was 2.9 µM, the IC50 (PC3; [1]) was 4.3 µM and the IC50 (MDA-MB-231; [1]) was 2.5 µM. For the same compound, the IC50 (SK-Mel-28; 0.03, 0.3, 3 and 30 μM, linear regression of semi-log plots) was 2.7 µM.

Work on `Cc1c(C)n(CCCN2CCN(C)CC2)c2ccc(Cc3cccc(C(=O)N4CCN(CCc5ccc6ccccc6c5)CC4)c3)cc12` [Compound 3537, (3-((2,3-dimethyl-1-(3-(4-methylpiperazin-1-yl)propyl)-1H-indol-5-yl)methyl)phenyl)(4-(2-(naphthalen-2-yl)ethyl)piperazin-1-yl)methanone] yielded an IC50 (DU145; [2]) of 5.8 µM, an IC50 (A549; [3]) of 3.6 µM and an IC50 (CaCo2; [4]) of 5 µM. The IC50 (SK-N-SH; [5]) was 4.2 µM, the IC50 (PC3; [6]) was 8 µM and the IC50 (MDA-MB-231; [7]) was 4.8 µM. For the same compound, the IC50 (SK-Mel-28; [8]) was 4.8 µM.

For `Cc1c(C)n(CCCN2CCN(C)CC2)c2ccc(Cc3cccc(C(=O)N4CCN(CCc5cccc6ccccc56)CC4)c3)cc12` [Compound 3539, (3-((2,3-dimethyl-1-(3-(4-methylpiperazin-1-yl)propyl)-1H-indol-5-yl)methyl)phenyl)(4-(2-(naphthalen-1-yl)ethyl)piperazin-1-yl)methanone], the IC50 (DU145; [2]) was 3.9 µM, the IC50 (A549; [3]) was 3.9 µM and the IC50 (CaCo2; [4]) was 4.6 µM. For the same compound, the IC50 (SK-N-SH; [5]) was 1.7 µM, the IC50 (PC3; [6]) was 3 µM and the IC50 (MDA-MB-231; [7]) was 2.8 µM. For the same compound, the IC50 (SK-Mel-28; [8]) was 2.2 µM.

With `COc1ccc2cccc(CCN3CCN(C(=O)c4cccc(Cc5ccc6c(c5)c(C)c(C)n6CCCN5CCN(C)CC5)c4)CC3)c2c1` [Compound 3540, (3-((2,3-dimethyl-1-(3-(4-methylpiperazin-1-yl)propyl)-1H-indol-5-yl)methyl)phenyl)(4-(2-(7-methoxynaphthalen-1-yl)ethyl)piperazin-1-yl)methanone] the IC50 (DU145; [2]) was 4.6 µM, the IC50 (A549; [3]) was 5 µM and the IC50 (CaCo2; [4]) was 4 µM. For the same compound, the IC50 (SK-N-SH; [5]) was 1.7 µM, the IC50 (PC3; [6]) was 2.3 µM and the IC50 (MDA-MB-231; [7]) was 2.3 µM. For the same compound, the IC50 (SK-Mel-28; [8]) was 1.9 µM.

For `Cc1c(C)n(CCCN2CCN(C)CC2)c2ccc(Cc3ccc(C(=O)N4CCN(CCc5ccc6ccccc6c5)CC4)cc3)cc12` [Compound 3542, (4-((2,3-dimethyl-1-(3-(4-methylpiperazin-1-yl)propyl)-1H-indol-5-yl)methyl)phenyl) (4-(2-(naphthalen-2-yl)ethyl)piperazin-1-yl)methanone], the IC50 (DU145; [2]) was 3.9 µM, the IC50 (A549; [3]) was 3.1 µM and the IC50 (CaCo2; [4]) was 3.9 µM. The IC50 (SK-N-SH; [5]) was 1.6 µM, the IC50 (PC3; [6]) was 3.6 µM and the IC50 (MDA-MB-231; [7]) was 2.8 µM. The IC50 (SK-Mel-28; [8]) was 1.4 µM.

`COc1ccc2cc(CCN3CCN(C(=O)c4ccc(Cc5ccc6c(c5)c(C)c(C)n6CCCN5CCN(C)CC5)cc4)CC3)ccc2c1` [Compound 3543, (4-((2,3-dimethyl-1-(3-(4-methylpiperazin-1-yl)propyl)-1H-indol-5-yl)methyl)phenyl)(4-(2-(6-methoxynaphthalen-2-yl)ethyl)piperazin-1-yl)methanone] showed an IC50 (DU145; [2]) of 1.7 µM, an IC50 (A549; [3]) of 1.5 µM and an IC50 (CaCo2; [4]) of 1.5 µM. The IC50 (SK-N-SH; [5]) was 1.6 µM, the IC50 (PC3; [6]) was 1.8 µM and the IC50 (MDA-MB-231; [7]) was 1.3 µM. For the same compound, the IC50 (SK-Mel-28; [8]) was 2 µM.

In the case of `Cc1c(C)n(CCCN2CCN(C)CC2)c2ccc(Cc3ccc(C(=O)N4CCN(CCc5cccc6ccccc56)CC4)cc3)cc12` [Compound 3544, (4-((2,3-dimethyl-1-(3-(4-methylpiperazin-1-yl)propyl)-1H-indol-5-yl)methyl)phenyl)(4-(2-(naphthalen-1-yl)ethyl)piperazin-1-yl)methanone], the IC50 (DU145; [2]) is reported as 9 µM, the IC50 (A549; [3]) is reported as 5.7 µM and the IC50 (CaCo2; [4]) is reported as 13.5 µM. The IC50 (SK-N-SH; [5]) was 7 µM, the IC50 (PC3; [6]) was 8.1 µM and the IC50 (MDA-MB-231; [7]) was 8.2 µM. It also gave an IC50 (SK-Mel-28; [8]) of 7.2 µM.

`COc1ccc2cccc(CCN3CCN(C(=O)c4ccc(Cc5ccc6c(c5)c(C)c(C)n6CCCN5CCN(C)CC5)cc4)CC3)c2c1` [Compound 3545, (4-((2,3-dimethyl-1-(3-(4-methylpiperazin-1-yl)propyl)-1H-indol-5-yl)methyl)phenyl)(4-(2-(7-methoxynaphthalen-1-yl)ethyl)piperazin-1-yl)methanone] showed an IC50 (DU145; [2]) of 3.6 µM, an IC50 (A549; [3]) of 4.2 µM and an IC50 (CaCo2; [4]) of 3.1 µM. The IC50 (SK-N-SH; [5]) was 2.1 µM, the IC50 (PC3; [6]) was 3 µM and the IC50 (MDA-MB-231; [7]) was 2.3 µM. The IC50 (SK-Mel-28; [8]) was 3.2 µM.
